Reference: patent US7749731B2, “Methods for recombinant peptide production” (XOMA Technology Ltd., priority 1999, dated 2010)

Experiments:
Experiment in all cases: Broth microdilution antifungal assay
Type in all cases: cell-based
Conditions in all cases: Sabouraud dextrose broth, 30° C., 48 hours
[1] = tested on: C. albicans 10231
Method: (§1) For example, studies were performed to evaluate the antifungal activity of the recombinant peptide from pING4702 purified according to Example 6 in a broth microdilution assay using four strains of C. albicans, C. glabrata and S. cerevisiae. A similar peptide, XMP.391, that was chemically synthesized, was included in the assay as a positive control. To perform the broth microdilution assay, the fungal cultures were grown overnight at 30° C. in YPD medium (1% yeast extract, 2% peptone, and 2% dextrose). A 400 fold dilution of each culture in YPD was then made, and grown at 30° C. for 8 hours. Three mL of each culture were collected by centrifugation and suspended in 0.9% NaCl to an A600 of about 0.3. These cultures were further diluted to 1×10^4 CFU/mL in Sabouraud dextrose broth (6 mL). Recombinant peptide was in 5 mM acetate, 150 mM NaCl, pH 5.0 at a concentration of about 2 mg/mL. Synthetic peptide was at about 1 mg/mL. Samples were serially diluted and added to microtiter plates containing the cultures. Plates were incubated at 30° C. for 48 hours before growth inhibition was measured.

[2] = tested on: C. albicans 14053
Method: as §1

[3] = tested on: C. albicans 26555
Method: as §1

[4] = tested on: C. albicans SLU1
Method: as §1

[5] = tested on: C. glabrata 2001
Method: as §1

[6] = tested on: S. cerevisiae 9763
Method: as §1

Substance	Concentration that gives 95% inhibition [1] [µM]	Concentration that gives 95% inhibition [2] [µM]	Concentration that gives 95% inhibition [3] [µM]	Concentration that gives 95% inhibition [4] [µM]	Concentration that gives 95% inhibition [5] [µM]	Concentration that gives 95% inhibition [6] [µM]
Recombinant Peptide: BPI-derived peptide (SEQ ID NO: 3) acid-released from the Bone D-Asp-Pro-Pro-peptide fusion protein encoded by pING4702, purified according to Example 6 (KVGWLIQLFHKK; Human)	30	16	30	16	30	7.5
XMP.391: Chemically synthesized 12 amino acid BPI-derived peptide (Lys Val Gly Trp Leu Ile Gln Leu Phe His Lys Lys), positive control (KVGWLIQLFHKK; printed: Lys Val Gly Trp Leu Ile Gln Leu Phe His Lys Lys)	16	16	16	13.5	30	2.0
